From patent US6440974B2, “Compounds useful for inhibition of farnesyl protein transferase” (Schering Corporation, priority 1997, dated 2002)

Assays:
[1] = target: farnesyl protein transferase (Homo sapiens, UniProt P49354+P49356); experiment: FPT IC50 (inhibition of farnesyl protein transferase, in vitro enzyme assay); assay type: biochemical
Experimental: (§1) FPT IC50 (inhibition of famesyl protein transferase, in vitro enzyme assay) and COS Cell IC50 (Cell-Based Assay) were determined following the assay procedures described in WO 95/10516, published Apr. 20, 1995. GGPIT IC50 (inhibition of geranylgeranyl protein transferase, in vitro enzyme assay), Cell Mat Assay, and anti-tumor activity (in vivo anti-tumor studies) could be determined by the assay procedures described in WO 95/10516. The disclosure of WO 95/10516 is incorporated herein by reference thereto.

COS Cell = COS Cell IC50 (Cell-Based Assay); settings: for IC50: cell-based assay
Experimental: as §1

Human tumor cells = experiment: Soft Agar Assay (anchorage-independent growth); assay type: cell-based
Experimental: Anchorage-independent growth is a characteristic of tumorigenic cell lines. Human tumor cells can be suspended in growth medium containing 0.3% agarose and an indicated concentration of a farnesyl transferase inhibitor. The solution can be overlayed onto growth medium solidified with 0.6% agarose containing the same concentration of farnesyl transferase inhibitor as the top layer. After the top layer is solidified, plates can be incubated for 10-16 days at 37° C. under 5% CO2 to allow colony outgrowth. After incubation, the colonies can be stained by overlaying the agar with a solution of MTT (3-[4,5-dimethylthiazol-2-yl]-2,5-diphenyltetrazolium bromide, Thiazolyl blue) (1 mg/mL in PBS). Colonies can be counted and the IC50's can be determined.

Row | SMILES | IC50 [1] [nM] | melting point | IC50 (Human tumor cells) [nM] | IC50 (COS Cell) [nM] | IC50 (COS Cell; COS) [nM] | COS Cell, percent at given concentration (printed in the COS Cell IC50 column) (COS Cell; @ 10 nM) [% @ 10]
1 | O=C(C1CC2CCC1CO2)N1CCC(C2c3ncc(Br)cc3CCc3cc(Cl)cc(Br)c32)CC1 (single isomer, unassigned) [Example 29] | 6.7 | 152 to 164 °C (dec.) | – | 30 | – | –
2 | O=C(CC1COCCO1)N1CCC(C2c3ncc(Br)cc3CCc3cc(Cl)cc(Br)c32)CC1 (centres unmarked) [Example 6] | 23 | 111 to 124 °C (dec.) | – | – | – | –
3 | O=C(CC1CCOCC1)N1CCC([C@H]2c3ncc(Br)cc3CCc3cc(Cl)cc(Br)c32)CC1 [Example 1] | – | 83.2 to 88.7 °C | – | – | – | –
4 | O=C(CC1CCCCO1)N1CCC(C2c3ncc(Br)cc3CCc3cc(Cl)cc(Br)c32)CC1 (centres unmarked) [Example 8] | 2 | 116 to 122 °C (dec.) | – | – | 68 | –
5 | O=C(CC1CCCO1)N1CCC(C2c3ncc(Br)cc3CCc3cc(Cl)cc(Br)c32)CC1 (centres unmarked) [Example 7] | 42 | 107 to 115 °C (dec.) | – | – | – | –
6 | O=C(CC1=CCOCC1)N1CCC(C2c3ncc(Br)cc3CCc3cc(Cl)cc(Br)c32)CC1 (centres unmarked) [Example 3] | 6.1 | 110.3 to 113.9 °C | – | – | – | –
7 | O=C(C1CC2CCC1CO2)N1CCC(C2c3ncc(Br)cc3CCc3cc(Cl)cc(Br)c32)CC1 (single isomer, unassigned) [Example 30] | 7.5 | 151 to 159 °C (dec.) | – | 75 | – | –

Second part, led by results:

Row | IC50 [1] [nM] | melting point | IC50 (Human tumor cells) [nM] | SMILES | IC50 (COS Cell) [nM] | IC50 (COS Cell; COS) [nM] | COS Cell, percent at given concentration (printed in the COS Cell IC50 column) (COS Cell; @ 10 nM) [% @ 10]
8 | 4.7 | – | – | O=C(CN1CC[S+]([O-])CC1)N1CCN(C2c3ccc(Cl)c(Br)c3CCc3cc(Br)cnc32)CC1 (centres unmarked) [Example 39] | – | 68 | –
9 | 3.1 | – | – | O=C(CN1CCOCC1)N1CCC([C@H]2c3ncc(Br)cc3CCc3cc(Cl)cc(Br)c32)CC1 [Example 36] | – | – | –
10 | 45 | – | – | O=C(CC1CCOCC1)N1CCN([C@@H]2c3ccc(Cl)cc3CCc3cc(Br)cnc32)CC1 [Example 33] | – | – | –
11 | 2.2 | 141 to 151 °C (dec.) | 8 | O=C(CC1CCOCC1)N1CCC([C@@H]2c3c(Br)cc(Cl)cc3CCc3cc(Br)c[n+]([O-])c32)CC1 [Example 40] | – | – | 100
12 | 4.9 | – | – | O=C(CN1CCSCC1)N1CCC([C@H]2c3ncc(Br)cc3CCc3cc(Cl)cc(Br)c32)CC1 [Example 37] | – | < 10 | –
